In US5093370A, “Quaternary ammonium compounds having muscle relaxation activity” (priority 1989, dated 1992) one finds IC50 data, which are given here for 34 compounds.

What is called IC50 is the midpoint of a concentration-inhibition curve.

One experiment relates to neuromuscular preparations (hemiinterseptum neuromuscule). Put plainly: Muscle relaxation action under a diabetic condition (neuromuscular preparations from alloxan-treated mice). It counts as cell-based. The settings on record: Mus musculus; alloxan diabetic ddY mice 8 to 11 weeks old, blood glucose 310 to 460 mg/dl; parentheses: 90% reliance. On the procedure: (§1) To prepare neuromuscular preparations ddY mice 6 to 10 weeks old weighing 27.0 to 42.0 g were decapitated, venesected, and the hemiinterseptum neuromuscule was removed. This preparation was suspended by applying 1 gram of a strain in Krebs-Henseleit's solution at 36 ±1° C., through which a mixed gas of carbon dioxide/oxygen (5:95) was passed, an electric shock (0.4 to 0.5V, 0.2 Hz, […].) was applied to the nerve by platinum electrodes, and the resulting short contraction reaction was detected by an isometric transducer (Nippon Koden Sha, Japan) and recorded by a biophysiograph system (San-Ei, Japan). An average of 12 contraction height data obtained one minute prior to the administration of a test compound was used as a control. The test compound was accumulatively administered at two minute intervals, and the contraction height two minutes after each administration was compared with the control, to calculate the percentage of inhibition. To ensure the reliability of the tests, usually four measurements were used for each administration.
Muscle relaxation action under a diabetic condition IC50
Alloxan monohydrate (Nakarai Kagaku, Japan) was administered to the tail vein of ddY mice 4 to 5 weeks old, in a dose of 85 mg/kg, and the blood glucose level was monitored starting at the 28th day, by a glucose analyzer from the administration of alloxan (Bechmann Type II). Mice 8 to 11 weeks old and weighing 19.0 to 36.0 g, and having a blood glucose level of 310 to 460 mg/dl, were chosen and used to prepare neuromuscular preparations as described above.
For `C[N+](C)(C)CCCCCCc1ccc(CCCCCC[N+](C)(C)C)cc1` [Example 20, 1,4-Bis(6-trimethylammoniohexyl)benzene diiodide], the IC50 turned out to be 21.7 µM.

`C[N+](C)(C)CCCCCCCCCC[N+](C)(C)C` [Decamethonium, reference compound]: the IC50 turned out to be 131 µM.

In the case of `C[N+](C)(C)CCCC(=O)c1ccc(C(=O)CCC[N+](C)(C)C)cc1` [Example 2, 1,4-Bis(4-trimethylammoniobutyryl)benzene diiodide], the IC50 was found to be 32.7 µM.

With `CC[N+](CC)(CC)CCCCCCc1ccc(CCCCCC[N+](CC)(CC)CC)cc1` [Example 21, 1,4-Bis(6-triethylammoniohexyl)benzene diiodide], the IC50 was found to be 7.66 µM.

On to `C[N+](C)(C)CCCCc1ccc(CCCC[N+](C)(C)C)cc1` [Example 1, 1,4-Bis(4-trimethylammoniobutyl)benzene diiodide], for which the IC50 amounted to 25.9 µM.

On to `CC[N+](CC)(CC)CCCCc1ccc(CCCC[N+](CC)(CC)CC)cc1` [Example 18, 1,4-Bis(triethylammoniobutyl)benzene diiodide], for which the IC50 turned out to be 51.1 µM.

For the compound `C[N+](C)(C)CCOC(=O)CCC(=O)OCC[N+](C)(C)C` [Succinylcholine, reference compound], the IC50 worked out at 19.3 µM.

Regarding `C[N+]1(CCCCCCc2ccc(CCCCCC[N+]3(C)CCCCC3)cc2)CCCCC1` [Example 22, 1,4-Bis[6-(1-methyl-1-piperidinio)hexyl]benzene dibromide], the IC50 stood at 21.8 µM.

Regarding `C[N+](C)(C)CCCCc1ccc(CCCC[N+](C)(C)C)c([N+](=O)[O-])c1` [Example 23, 1,4-Bis(4-trimethylammoniobutyl)-2-nitrobenzene diiodide], the IC50 worked out at 11.9 µM.

A further experiment has the same test system. The experiment can be described thus: Muscle relaxation action: inhibition of nerve-evoked contraction of mouse neuromuscular preparation. It counts as cell-based, ddY mice. The settings on record: ddY mice 6 to 10 weeks old, Krebs-Henseleit's solution, 36 ±1° C., contraction height two minutes after each cumulative administration, parentheses: 90% reliance, read-out: Muscle relaxation action IC50 (90% reliance). On the procedure:
Muscle relaxation action IC50)
as §1, with “administration. The IC50 value was obtained on a line linearized by the method of least […] from a scope from a 10 to 60% inhibition in a log dose-inhibition curve.” for “administration.”
Turning to `C[N+](C)(C)CCCCCCCCc1ccccc1` [Example 15, N,N,N-Trimethyl-8-phenyloctylammonium p-tosylate], the IC50 stood at 252 µM.

`CC[N+](CC)(CC)CCCCCc1ccc(CCCCC[N+](CC)(CC)CC)cc1` [Example 10, 1,4-Bis(5-triethylammoniopentyl)benzene diiodide]: the IC50 stood at 11.2 µM.

`C[N+](C)(C)CCCC(O)c1ccc(C(O)CCC[N+](C)(C)C)cc1` (stereo not shown) [Example 3, 1,4-Bis(1-hydroxy-4-trimethylammoniobutyl)benzene diiodide]: the IC50 was determined as 209 µM.

As for `C[N+](C)(C)CCCc1ccc2cc(CCC[N+](C)(C)C)ccc2c1` [Example 31, 2,6-Bis(3-trimethylammoniopropyl)naphthalene diiodide], the IC50 is 186 µM.

On to `C[N+]1(CCCCCc2ccc(CCCCC[N+]3(C)CCCCC3)cc2)CCCCC1` [Example 11], for which the IC50 was determined as 60.7 µM.

On to `CC[N+](CC)(CC)CCCc1ccc(-c2ccc(CCC[N+](CC)(CC)CC)cc2)cc1` [Example 35, 4,4'-Bis(3-triethylammoniopropyl)biphenyl diiodide], for which the IC50 amounted to 24.9 µM.

`C[N+]1(CCCCc2ccc(CCCC[N+]3(C)CCCCC3)cc2)CCCCC1` [Example 19, 1,4-Bis[4-(1-methyl-1-piperidinio)butyl]benzene dibromide]: the IC50 was 95.9 µM.

Regarding `C[N+](C)(C)CCCSc1ccc(SCCC[N+](C)(C)C)cc1` [Example 28, 1,4-Bis(3-trimethylammoniopropylthio)benzene diiodide], the IC50 worked out at 3.89 µM.

Take `CC[N+](CC)(CC)CCCCCCCCc1ccc(CCCCCCCC[N+](CC)(CC)CC)cc1` [Example 36, 1,4-Bis(8-triethylammoniooctyl)benzene diiodide]: the IC50 was 114 µM.

As for `C[N+](C)(C)CCCCCCCCCC[N+](C)(C)C` [Decamethonium, reference compound], the IC50 was 101 µM.

As for `C[N+](C)(C)CCCS(=O)(=O)c1ccc(S(=O)(=O)CCC[N+](C)(C)C)cc1` [Example 30, 1,4-Bis(3-trimethylammoniopropylsulfonyl)benzene diiodide], the IC50 amounted to 9.44 µM.

Take `C[N+](C)(C)CCC[S+]([O-])c1ccc([S+]([O-])CCC[N+](C)(C)C)cc1` (stereo not shown) [Example 29, 1,4-Bis(3-trimethylammoniopropylsulfinyl)benzene diiodide]: the IC50 was 5.46 µM.

In the case of `CC[N+](CC)(CC)CCCCCCc1ccc(CCCCCC[N+](CC)(CC)CC)cc1` [Example 21, 1,4-Bis(6-triethylammoniohexyl)benzene diiodide], the IC50 worked out at 6.81 µM.

As to `CC[N+](CC)(CC)CCCCCCc1ccc(CCCCCC[N+](CC)(CC)CC)c([N+](=O)[O-])c1` [Example 26, 1,4-Bis(6-triethylammoniohexyl)-2-nitrobenzene diiodide], the IC50 turned out to be 4.52 µM.

On to `CC[N+](CC)(CC)CCCc1ccc2cc(CCC[N+](CC)(CC)CC)ccc2c1` [Example 32, 2,6-Bis(3-triethylammoniopropyl)naphthalene diiodide], for which the IC50 came to 79.1 µM.

`CC[N+](CC)(CC)CCCCCCCc1ccc(CCCCCCC[N+](CC)(CC)CC)cc1` [Example 27, 1,4-Bis(7-triethylammonioheptyl)benzene diiodide]: the IC50 came out at 5.96 µM.

With `c1cc[n+](CCCc2ccc(CCC[n+]3ccccc3)cc2)cc1` [Example 8, 1,4-Bis[3-(1-pyridinio)propyl]benzene dibromide], the IC50 was found to be 207 µM.

With `C[N+](C)(C)CC(CCCc1ccc(CCCC(C[N+](C)(C)C)C[N+](C)(C)C)cc1)C[N+](C)(C)C` [Example 13], the IC50 is 1440 µM.

As to `CC[N+](CC)(CC)CCCCc1ccc(CCCC[N+](CC)(CC)CC)cc1` [Example 18, 1,4-Bis(triethylammoniobutyl)benzene diiodide], the IC50 stood at 52.4 µM.

With `C[N+](C)(C)CCOC(=O)CCC(=O)OCC[N+](C)(C)C` [Succinylcholine, reference compound], the IC50 amounted to 25.2 µM.

On to `C[N+]1(CCCCCCc2ccc(CCCCCC[N+]3(C)CCCCC3)cc2)CCCCC1` [Example 22, 1,4-Bis[6-(1-methyl-1-piperidinio)hexyl]benzene dibromide], for which the IC50 is 17.3 µM.

With `CC[N+](CC)(CC)CCCc1ccc(CCC[N+](CC)(CC)CC)cc1` [Example 6, 1,4-Bis(3-triethylammoniopropyl)benzene diiodide], the IC50 is 176 µM.

Take `CC[N+](CC)(CC)CCCCCSc1ccc(SCCCCC[N+](CC)(CC)CC)cc1` [Example 33, 1,4-Bis(5-triethylammoniopentylthio)benzene diiodide]: the IC50 worked out at 1.5 µM.

Still in this experiment, the particulars now being: read-out: Muscle relaxation action IC50 (90% reliance).
In the case of `C[N+](C)(C)CCCCCCc1ccc(CCCCCC[N+](C)(C)C)cc1` [Example 20, 1,4-Bis(6-trimethylammoniohexyl)benzene diiodide], the IC50 came to 15.9 µM.

Consider `C[N+](C)(C)CCCCc1ccccc1CCCC[N+](C)(C)C` [Example 17, 1,2-Bis(4-trimethylammoniobutyl)benzene diiodide], for which the IC50 was 59.7 µM.

With `C[N+](C)(C)CCOCc1ccc(COCC[N+](C)(C)C)cc1` [Example 12, 1,4-Bis(2-trimethylammonioethoxymethyl)benzene diiodide], the IC50 turned out to be 750 µM.

Take `C[N+](C)(C)CCC#Cc1ccc(C#CCC[N+](C)(C)C)cc1` [Example 25, 1,4-Bis(4-trimethylammonio-1-butynyl)benzene diiodide]: the IC50 turned out to be 110 µM.

Take `C[N+](C)(C)CCCC(=O)c1ccc(C(=O)CCC[N+](C)(C)C)cc1` [Example 2, 1,4-Bis(4-trimethylammoniobutyryl)benzene diiodide]: the IC50 was determined as 26 µM.

On to `C[N+](C)(C)CCCc1ccc(-c2ccc(CCC[N+](C)(C)C)cc2)cc1` [Example 34, 4,4'-Bis(3-trimethylammoniopropyl)biphenyl diiodide], for which the IC50 is 132 µM.

As for `C[N+](C)(C)CCCCc1cccc(CCCC[N+](C)(C)C)c1` [Example 16, 1,3-Bis(4-trimethylammoniobutyl)benzene diiodide], the IC50 turned out to be 531 µM.

As to `C[N+](C)(C)CCCCc1ccc(CCCC[N+](C)(C)C)cc1` [Example 1, 1,4-Bis(4-trimethylammoniobutyl)benzene diiodide], the IC50 came to 22.8 µM.

For the compound `CC(=O)OC(CCC[N+](C)(C)C)c1ccc(C(CCC[N+](C)(C)C)OC(C)=O)cc1` (stereo not shown) [Example 4, 1,4-Bis(1-acetoxy-4-trimethylammoniobutyl)benzene diiodide], the IC50 amounted to 450 µM.

Take `C[N+]1(CCCc2ccc(CCC[N+]3(C)CCCCC3)cc2)CCCCC1` [Example 7, 1,4-Bis3-(1-methyl-1-piperidinio)propyl]benzene dibromide]: the IC50 was 119 µM.

For the compound `C[N+](C)(C)CCCCc1ccc(CCCC[N+](C)(C)C)c([N+](=O)[O-])c1` [Example 23, 1,4-Bis(4-trimethylammoniobutyl)-2-nitrobenzene diiodide], the IC50 was 12.7 µM.
